From US8993718B2, “Methods and compositions for detecting and modulating O-glycosylation” (President and Fellows of Harvard College, priority 2007, dated 2015) come the findings set out here.

“Also recorded” adds a separate entry of the source. Non-standard residues stand in square brackets, D forms with d. Primed or numbered codes have the meaning given here. No end group written: not given here. *: point of attachment. FITC = O=C1OC2(c3ccc(O)cc3Oc3cc(O)ccc32)c2ccc(NC(=S)*)cc21; Aha′ = not defined here

Common to all, as to assay type: biochemical
One assay concerns ppGalNAcTs. Nature of the assay: Protease protection assay for ppGalNAcTs (general). How it is done:
(§1) There are multiple isoforms of the enzyme polypeptide N-acetylgalactosaminyltranferases (ppGalNAcTs). Activity of ppGalNAcTs are illustrated in FIG. 14. Using assay methods as described above, peptide substrates for ppGalNAcTs were prepared and used to assay to identify modulators of ppGalNAcTs activity. Peptide substrates EPGPTEAPK (SEQ ID NO:25) and EDAVTPGPK (SEQ ID NO:26) were prepared (see FIG. 15) and utilized to assay for modulators of the enzymes. Each peptide substrate include a proteinase K cleavage site. The identified compound SEQ ID NO:25 is a general substrate for ppGalNAcTs and identified compound SEQ ID NO:26 is a selective substrate for the enzyme ppGalNAcT1. Assays were run and alterations in the rate and/or amount of cleavage by proteinase K was determined. […] The difference in cleavage permitted use of the assay to identify compounds that inhibit glycosylation of the substrate by ppGalNAcTs. Additional inhibitory compounds identified using the assay include Compound 24 and Compound 27 (see Table 1).

Another assay addresses T1, ppGalNAcT1 (Homo sapiens, UniProt Q10472).
T1 sequence (Q10472 1-559): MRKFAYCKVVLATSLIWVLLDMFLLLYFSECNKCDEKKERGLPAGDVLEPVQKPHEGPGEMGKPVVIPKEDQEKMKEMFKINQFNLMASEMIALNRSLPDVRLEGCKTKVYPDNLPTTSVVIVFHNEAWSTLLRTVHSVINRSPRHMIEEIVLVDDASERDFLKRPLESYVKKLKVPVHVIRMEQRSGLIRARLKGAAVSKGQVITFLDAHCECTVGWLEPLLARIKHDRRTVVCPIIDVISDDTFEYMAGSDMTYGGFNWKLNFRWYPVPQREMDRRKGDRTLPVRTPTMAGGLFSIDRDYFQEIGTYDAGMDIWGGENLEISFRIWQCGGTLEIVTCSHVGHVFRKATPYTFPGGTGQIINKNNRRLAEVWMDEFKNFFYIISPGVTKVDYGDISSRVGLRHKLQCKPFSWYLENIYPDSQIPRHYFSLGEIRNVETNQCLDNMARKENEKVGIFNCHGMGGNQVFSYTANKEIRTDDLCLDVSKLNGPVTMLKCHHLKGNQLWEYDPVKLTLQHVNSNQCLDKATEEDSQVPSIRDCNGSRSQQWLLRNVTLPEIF
Nature of the assay: Protease protection assay for ppGalNAcT1. How it is done:
as §1
(§2) It was determined that the assay could also be used to identify isoform selective inhibitors. […] The presence of the inhibitor disrupted crystal growth of the ppGalNAcT2.

A further assay addresses ppGalNAcT2 (Homo sapiens, UniProt Q10471). Nature of the assay: Protease protection assay for ppGalNAcT2. How it is done:
as §1, §2

Assay [1] has as its target T2, O-Linked N-acetylglucosaminyltransferase (OGT) (Homo sapiens, UniProt O15294).
T2 sequence (O15294 1-1046): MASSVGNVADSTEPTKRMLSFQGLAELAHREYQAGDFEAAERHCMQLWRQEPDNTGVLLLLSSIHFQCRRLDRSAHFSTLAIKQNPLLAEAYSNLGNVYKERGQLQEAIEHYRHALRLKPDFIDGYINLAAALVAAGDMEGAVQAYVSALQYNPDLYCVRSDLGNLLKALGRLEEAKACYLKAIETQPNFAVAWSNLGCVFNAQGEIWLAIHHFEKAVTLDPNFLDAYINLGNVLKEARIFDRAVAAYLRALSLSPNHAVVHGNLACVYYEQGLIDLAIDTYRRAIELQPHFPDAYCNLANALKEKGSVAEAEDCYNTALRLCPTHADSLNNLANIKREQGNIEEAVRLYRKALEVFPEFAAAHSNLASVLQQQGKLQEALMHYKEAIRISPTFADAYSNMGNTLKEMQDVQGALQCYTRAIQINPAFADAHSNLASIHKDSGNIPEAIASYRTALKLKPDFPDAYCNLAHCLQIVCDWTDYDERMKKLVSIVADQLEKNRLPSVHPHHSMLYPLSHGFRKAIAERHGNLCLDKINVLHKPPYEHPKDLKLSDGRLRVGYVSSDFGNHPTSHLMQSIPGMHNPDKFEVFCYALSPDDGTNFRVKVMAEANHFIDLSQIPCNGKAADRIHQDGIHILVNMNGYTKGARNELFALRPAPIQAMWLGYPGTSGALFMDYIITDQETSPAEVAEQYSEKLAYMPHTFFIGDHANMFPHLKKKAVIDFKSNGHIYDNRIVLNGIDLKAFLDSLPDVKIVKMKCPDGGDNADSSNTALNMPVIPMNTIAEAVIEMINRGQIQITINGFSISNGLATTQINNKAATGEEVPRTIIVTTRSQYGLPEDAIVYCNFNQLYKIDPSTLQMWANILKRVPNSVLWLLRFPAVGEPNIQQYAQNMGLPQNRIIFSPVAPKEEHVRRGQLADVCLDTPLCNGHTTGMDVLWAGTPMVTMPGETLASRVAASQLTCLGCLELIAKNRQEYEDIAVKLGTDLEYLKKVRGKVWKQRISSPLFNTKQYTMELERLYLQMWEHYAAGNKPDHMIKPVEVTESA
Nature of the assay: Glycosylation of CK2-derived polypeptide substrates by OGT, quantified by LC/MS. The following applies: OGT, LC/MS peak integration at 445 nm; relative to wt polypeptide 4.1. How it is done:
To address the first requirement, a panel of polypeptides was synthesized based on a truncated version of the CKII polypeptide [CKII peptide PGGSTPVSSNAMM (SEQ ID NO:20)]. The polypeptide was modified from the native sequence in several ways. First, a fluorescein was installed on the N-terminus during synthesis. Second, a lysine was added to the C-terminus so that a second dye or quencher could be installed by reaction with the appropriate N-hydroxysuccinimidyl ester. These modifications allowed two different FRET approaches. The first approach required the installation of a coumarin derivative on the polypeptide. The second required installation of a quencher molecule, which measured total fluorescence intensity. (See Examples 2 and 3). Finally, the residues on either side of the glycosylated serine of the truncated CK2 polypeptide were changed to phenylalanine, leucine or arginine to introduce proteolytic cleavage sites for common proteases (such as trypsin, chymotrypsin and thermolysin) that were not present in the native sequence. It was reasoned that cleavage adjacent to the glycosylation site would yield the largest difference in the rate of proteolysis between glycosylated and native polypeptides. This series of polypeptides was synthesized and screened for OGT activity using by LC/MS. Peak integration (measured at 445 nm) was used to quantitative products and reactants and mass spectrometry was used to confirm peak identity. The results are presented in Table 2 and some of the peptides (peptide 4.1, 4.4, and 4.5 top to bottom) are illustrated in FIG. 2.
All polypeptides were purchased from Tufts University core facility (Boston, Mass.). The mass of crude product was verified and the polypeptides were labeled under the following conditions: Polypeptide was dissolved in 250 mM NaHCO3 buffer, pH 8.2 at a 5 mM concentration and the appropriate NHS-Ester (0.5 eq) was dissolved in DMSO (a volume of 1/10 of the aqueous buffer was used). The DMSO solution was quickly added to the peptide and the reaction proceeded at room temperature for 30 minutes. This was repeated 2 more times (four more times for polypeptide 4.10). The reaction was monitored by LC/MS. LCMS conditions for polypeptides 4.1-4.8—Agilent Eclipse 5 μm XD8-C8 column, 0→100% CH3CN+0.1% formic acid over 20 minutes. LCMS conditions for polypeptides 4.9-4.10—Agilent Eclipse 5 μm XD8-C8 column, 0→100% CH3CN+0.1% NH4OH over 20 minutes. Each polypeptide was purified by preparative HPLC. Conditions for polypeptides 4.1-4.8 were: —Phenomonex Luna C18 5 μm column, 0→100% CH3CN+0.1% TFA over 40 minutes. Conditions for polypeptides 4.9-4.10 were: —Phenomonex Luna C18 5 μm column, 0→100% CH3CN+0.1% NH4OH over 40 minutes. Products were confirmed by LC/MS. Preparative Glycosylation of Labeled Polypeptides: Purified FRET labeled polypeptides were added (20-50 μM final concentration) to assay buffer (50 mM Tris, 20 mM CaCl2, 0.05% Tween-20, 0.05% NP-40, pH=7.8), 200 μM UDP-GlcNAc, 0.05 units of alkaline phosphatase, and 5 μM OGT. Reactions were monitored using LCMS: conditions for polypeptides 4.1-4.8—Agilent Eclipse 5 μm XD8-C8 column, 10→60% CH3CN+0.1% formic acid over 20 minutes. LCMS conditions for polypeptides 4.9-4.10—Agilent Eclipse 5 μm XD8-C8 column, 10→60% CH3CN+0.1% NH4OH over 20 minutes, and when complete were purified using the same column and conditions. Polypeptides 4.1-4.8 were quantitated by absorption at 492 nm using an extinction coefficient of 86,000 cm^−1M^−1; polypeptide 4.9 was quantitated by absorption at 530 nm using an extinction coefficient of 26,000 cm^−1M^−1; polypeptide 4.10 was quantitated by absorption at 530 nm using an extinction coefficient of 52,000 cm^−1M^−1. Fluorescence Resonance Energy Transfer (FRET)-Peptide Approach #1

ppGalNAcT2, sequence (Q10471 whole entry): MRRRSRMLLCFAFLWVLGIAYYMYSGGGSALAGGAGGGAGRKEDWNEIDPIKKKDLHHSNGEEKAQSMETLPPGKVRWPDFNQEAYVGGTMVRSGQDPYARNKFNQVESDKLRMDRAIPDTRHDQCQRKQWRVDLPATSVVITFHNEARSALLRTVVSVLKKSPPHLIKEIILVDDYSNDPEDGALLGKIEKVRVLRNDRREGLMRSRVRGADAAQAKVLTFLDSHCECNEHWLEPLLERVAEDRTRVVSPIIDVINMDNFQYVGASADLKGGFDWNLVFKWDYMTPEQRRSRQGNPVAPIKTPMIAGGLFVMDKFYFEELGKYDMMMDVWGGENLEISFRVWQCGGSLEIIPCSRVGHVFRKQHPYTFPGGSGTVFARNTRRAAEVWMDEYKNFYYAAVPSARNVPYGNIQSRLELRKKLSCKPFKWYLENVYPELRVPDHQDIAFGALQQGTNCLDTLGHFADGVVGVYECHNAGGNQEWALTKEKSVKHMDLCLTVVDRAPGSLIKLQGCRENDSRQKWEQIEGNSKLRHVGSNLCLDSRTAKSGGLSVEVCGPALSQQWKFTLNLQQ

`O=C(O)CCCCCn1c(SCC(=O)c2ccc(O)c(O)c2)nc2ccsc2c1=O` [Compound 27]: the “inhibition of ppGalNAcTs” value in the assay on ppGalNAcTs is “inhibitory; also recorded: inhibitors”.
Consider `O=C(O)CCCN1C(=O)C(O)=C(C(=O)/C=C\c2ccccc2)C1c1ccccc1` (centres unmarked) [Compound 24], for which the “inhibition of ppGalNAcT1 (% glycosylation, FIG. 18)” value against ppGalNAcT1 is given as “inhibits”. In addition, the “inhibition of ppGalNAcT2 (% glycosylation, FIG. 18)” value against ppGalNAcT2 is recorded as “inhibits”. Besides, the “inhibition of ppGalNAcTs” value in the assay with ppGalNAcTs is on record as “inhibitory; also recorded: inhibitors”.
As to `O=C1NC(=O)N(Cc2ccco2)C(=O)/C1=C\c1ccco1` [Compound 25], the “isoform selectivity ppGalNAcT2 vs ppGalNAcT1” value on ppGalNAcT2 (FIG. 18B) is given as “more selective inhibitor for ppGalNAcT2 than for ppGalNAcT1; also recorded: more selectively inhibits ppGalNAcT2 than ppGalNAcT1”.
Regarding “FITC(Aha)STPVSRANMK ({FITC}-[Aha′]STPVSRANMK; reading uncertain; also: printed as FITC(Aha)STPVSRANMK) [Polypeptide 4.5]”, the “Relative rate of glycosylation” value in assay [1] is reported as 0.7.
As to `O=C1NC(=S)NC(=O)C1=C/C=C\c1ccco1` [Compound 26], the “inhibition of ppGalNAcTs” value in the assay with ppGalNAcTs is recorded as “inhibitors”.
With “FITC(Aha)STPVSFANMK ({FITC}-[Aha′]STPVSFANMK; reading uncertain; also: printed as FITC(Aha)STPVSFANMK) [Polypeptide 4.4]”, the “Relative rate of glycosylation” value in assay [1] worked out at 0.4.
